Test results published in ChEMBL document CHEMBL1158509, “Novel selective thiazoleacetic acids as CRTH2 antagonists developed from in silico derived hits. Part 2” (Bioorg Med Chem Lett, 2010).

Assays:
[1] = molecular target: T1, Prostaglandin D2 receptor 2 (Homo sapiens) (UniProt Q9Y5Y4); assay: Antagonist activity at human CRTH2 receptor expressed in […] cells assessed as inhibition of beta arrestin translocation by bioluminescence resonance energy transfer assay relative to control; assay type: functional, cell-based
T1 sequence (whole entry): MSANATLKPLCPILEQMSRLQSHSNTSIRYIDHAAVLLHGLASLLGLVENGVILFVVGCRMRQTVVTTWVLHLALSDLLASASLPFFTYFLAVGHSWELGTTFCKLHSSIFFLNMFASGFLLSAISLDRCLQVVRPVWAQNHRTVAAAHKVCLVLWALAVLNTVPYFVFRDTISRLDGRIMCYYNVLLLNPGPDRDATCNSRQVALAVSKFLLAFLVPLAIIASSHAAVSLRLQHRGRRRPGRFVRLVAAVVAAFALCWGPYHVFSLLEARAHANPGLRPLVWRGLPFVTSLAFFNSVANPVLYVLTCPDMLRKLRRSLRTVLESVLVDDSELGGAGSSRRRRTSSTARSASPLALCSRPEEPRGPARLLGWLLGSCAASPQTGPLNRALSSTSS

[2] = molecular target: T2, Prostaglandin D2 receptor 2 (Homo sapiens, UniProt Q9Y5Y4); assay: Antagonist activity at human CRTH2 receptor expressed in […] cells assessed as inhibition of beta arrestin translocation by bioluminescence resonance energy transfer assay; assay type: functional, cell-based
T2 sequence (Q9Y5Y4 whole entry): T1 sequence (whole entry)

[3] = molecular target: T2, Prostaglandin D2 receptor 2; assay: Displacement of[3H]PGD2 from human CRTH2 receptor expressed in […] cells; assay type: cell-based

SMILES	Efficacy [1]	IC50 [2]	IC50 [3]
N#Cc1cccc(-c2nc(C(c3ccc(F)cc3)c3ccc(F)cc3)sc2CC(=O)O)c1	80%	220 nM	20 nM
COc1ccc(Cl)cc1-c1nc(C(c2ccccc2)c2ccccc2)sc1CC(=O)O	80%	> 100000 nM	9400 nM
O=C(O)Cc1sc(C(c2ccccc2)c2ccccc2)nc1-c1ccccc1	80%	370 nM	570 nM
O=C(O)Cc1sc(C(c2ccccc2)c2ccccc2)nc1-c1ccc(F)cc1	80%	77 nM	8.7 nM
O=C(O)Cc1sc(C(c2ccc(F)cc2)c2ccc(F)cc2)nc1-c1ccoc1	80%	130 nM	14 nM
O=C(O)Cc1sc(C(c2ccc(F)cc2)c2ccc(F)cc2)nc1-c1ccnc(F)c1	80%	4.7 nM	0.48 nM
O=C(O)Cc1sc(C(c2ccc(F)cc2)c2ccc(F)cc2)nc1-c1ccncc1	80%	40 nM	5.3 nM
NS(=O)(=O)c1cccc(-c2nc(C(c3ccc(F)cc3)c3ccc(F)cc3)sc2CC(=O)O)c1	55%	710 nM	140 nM
COc1cc(-c2nc(C(c3ccc(F)cc3)c3ccc(F)cc3)sc2CC(=O)O)ccn1	60%	380 nM	29 nM
O=C(O)Cc1sc(C(c2ccc(F)cc2)c2ccc(F)cc2)nc1-c1ccnc(N2CCCC2)c1	80%	> 100000 nM	230 nM
COc1ccc(C(c2ccc(OC)cc2)c2nc(-c3ccc(F)cc3)c(CC(=O)O)s2)cc1	80%	31 nM	3.9 nM
CS(=O)(=O)c1cccc(-c2nc(C(c3ccc(F)cc3)c3ccc(F)cc3)sc2CC(=O)O)c1	30%	6300 nM	590 nM
O=C(O)Cc1sc(C(c2ccc(F)cc2)c2ccc(F)cc2)nc1-c1cccc(F)c1	80%	18 nM	1.4 nM
O=C(O)Cc1sc(C(c2ccc(F)cc2)c2ccc(F)cc2)nc1-c1ccccc1	80%	240 nM	16 nM
O=C(O)Cc1sc(C(c2ccc(F)cc2)c2ccc(F)cc2)nc1-c1ccc(F)c(F)c1	80%	41 nM	3.5 nM
O=C(O)Cc1sc(C(c2ccc(F)cc2)c2ccc(F)cc2)nc1-c1ccn[nH]1	30%	3300 nM	280 nM
Nc1cc(-c2nc(C(c3ccc(F)cc3)c3ccc(F)cc3)sc2CC(=O)O)cc(F)n1	30%	1400 nM	220 nM
Nc1ccc(-c2nc(C(c3ccc(F)cc3)c3ccc(F)cc3)sc2CC(=O)O)cn1	60%	500 nM	100 nM

SMILES	Efficacy [1]	IC50 [2]	IC50 [3]
O=C(O)Cc1sc(C(c2ccc(F)cc2)c2ccc(F)cc2)nc1-c1cc[nH]c(=O)c1		890 nM	68 nM
O=C(O)Cc1sc(C(c2ccc(F)cc2)c2ccc(F)cc2)nc1-c1ccc(Cl)cc1	80%	180 nM	9.7 nM
Cn1cc(-c2nc(C(c3ccc(F)cc3)c3ccc(F)cc3)sc2CC(=O)O)cn1	80%	3500 nM	1300 nM
CC(=O)N1CCN(c2cc(-c3nc(C(c4ccc(F)cc4)c4ccc(F)cc4)sc3CC(=O)O)ccn2)CC1	80%	> 100000 nM	360 nM
COc1ccc(OC)c(-c2nc(C(c3ccccc3)c3ccccc3)sc2CC(=O)O)c1	80%	> 100000 nM	
O=C(O)Cc1sc(C(c2ccccc2)c2ccccc2)nc1-c1ccc(C(F)(F)F)cc1	80%	> 100000 nM	1100 nM
CN(C)c1cc(-c2nc(C(c3ccc(F)cc3)c3ccc(F)cc3)sc2CC(=O)O)ccn1	80%	> 100000 nM	380 nM
CS(=O)(=O)Nc1cccc(-c2nc(C(c3ccc(F)cc3)c3ccc(F)cc3)sc2CC(=O)O)c1	80%	370 nM	40 nM
NS(=O)(=O)c1ccc(-c2nc(C(c3ccc(F)cc3)c3ccc(F)cc3)sc2CC(=O)O)cc1	80%	> 100000 nM	1500 nM
O=C(O)Cc1sc(C(c2ccc(F)cc2)c2ccc(F)cc2)nc1-c1cccnc1	80%	510 nM	68 nM
N#Cc1ccc(-c2nc(C(c3ccc(F)cc3)c3ccc(F)cc3)sc2CC(=O)O)cc1	30%	1500 nM	150 nM
O=C(O)Cc1sc(C(c2ccccc2)c2ccc(O)cc2)nc1-c1ccc(F)cc1 (configuration not stated)	80%	30 nM	3.4 nM
COc1ccc(-c2nc(C(c3ccccc3)c3ccccc3)sc2CC(=O)O)cc1	55%	910 nM	370 nM
O=C(O)Cc1sc(C(c2ccc(F)cc2)c2ccc(F)cc2)nc1-c1ccco1	80%	140 nM	18 nM
O=C(O)Cc1sc(C(c2ccc(F)cc2)c2ccc(F)cc2)nc1-c1cc(F)nc(F)c1	80%	110 nM	5.4 nM
O=C(O)Cc1sc(C(c2ccc(F)cc2)c2ccc(F)cc2)nc1-c1ccc(F)cc1	80%	72 nM	7.5 nM
O=C(O)Cc1sc(C(c2ccc(F)cc2)c2ccc(F)cc2)nc1-c1cn[nH]c1	80%	220 nM	16 nM
O=C(O)Cc1sc(C(c2ccc(F)cc2)c2ccc(F)cc2)nc1-c1ccnc(O)c1	60%		

Second part, the compound after the results:

Efficacy [1]	IC50 [2]	IC50 [3]	SMILES
50%	510 nM	56 nM	O=C(O)Cc1sc(C(Cc2ccccc2)c2ccccc2)nc1-c1ccc(Cl)cc1 (configuration not stated)
50%	450 nM	250 nM	O=C(O)Cc1sc(CSc2ccccc2)nc1-c1ccc(Cl)cc1
50%	> 100000 nM	> 100000 nM	Nc1nc(-c2ccc(Cl)cc2)c(CC(=O)O)s1
80%	75 nM	45 nM	O=C(O)Cc1sc(C(c2ccccc2)c2ccc(Cl)cc2)nc1-c1ccc(Cl)cc1 (configuration not stated)
30%	2300 nM	440 nM	O=C(O)Cc1sc(NCc2ccccc2)nc1-c1ccc(Cl)cc1
50%	1300 nM		O=C(O)Cc1sc(-c2ccc(Oc3ccccc3)cc2)nc1-c1ccc(Cl)cc1
30%	730 nM	1500 nM	O=C(O)Cc1sc(CS(=O)(=O)c2ccc(Cl)cc2)nc1-c1ccc(Cl)cc1
80%	79 nM	14 nM	O=C(O)Cc1sc(C(c2ccccc2)c2ccc(Cl)cc2)nc1-c1ccc(F)cc1 (configuration not stated)
50%			O=C(O)Cc1sc(Nc2ccccc2)nc1-c1ccc(Cl)cc1
50%	870 nM	520 nM	O=C(O)Cc1sc(NC(=O)c2ccccc2)nc1-c1ccc(Cl)cc1
80%	> 100000 nM	3200 nM	O=C(O)Cc1sc(C(c2ccccc2)c2cccc(Cl)n2)nc1-c1ccc(Cl)cc1 (configuration not stated)
50%	370 nM	32 nM	O=C(O)Cc1sc(COc2ccc(Cl)cc2)nc1-c1ccc(Cl)cc1
80%	310 nM	61 nM	COc1ccc(C(c2ccccn2)c2nc(-c3ccc(Cl)cc3)c(CC(=O)O)s2)cc1 (configuration not stated)
50%	32000 nM	340 nM	O=C(O)Cc1sc(CC(c2ccccc2)c2ccccc2)nc1-c1ccc(Cl)cc1
80%	43 nM	4.1 nM	O=C(O)Cc1sc(C(c2ccccc2)c2ccccc2)nc1-c1ccc(F)c(F)c1
50%	960 nM		O=C(O)Cc1sc(-c2ccccc2)nc1-c1ccc(Cl)cc1 [FENTIAZAC]
50%	> 100000 nM	190 nM	CCC(c1ccccc1)c1nc(-c2ccc(Cl)cc2)c(CC(=O)O)s1 (configuration not stated)
80%	76 nM	8.4 nM	COc1ccc(C(c2ccccc2)c2nc(-c3ccc(Cl)cc3)c(CC(=O)O)s2)cc1 (configuration not stated)
50%	550 nM	52 nM	CC(=O)N1CCC(c2ccccc2)(c2nc(-c3ccc(Cl)cc3)c(CC(=O)O)s2)CC1
50%	> 100000 nM	530 nM	O=C(O)Cc1sc(C(c2ccccc2)C2CCCCC2)nc1-c1ccc(Cl)cc1 (configuration not stated)
80%	64 nM	10 nM	O=C(O)Cc1sc(C(c2ccccc2)c2ccc(F)c(F)c2)nc1-c1ccc(F)cc1 (configuration not stated)
50%	96 nM	150 nM	O=C(O)Cc1sc(Nc2cccc3ccccc23)nc1-c1ccc(Cl)cc1
50%			O=C(O)Cc1sc(Cc2ccccc2-c2ccccc2)nc1-c1ccc(Cl)cc1
50%	> 100000 nM	2900 nM	O=C(O)Cc1sc(C2(c3ccccc3)CCNCC2)nc1-c1ccc(Cl)cc1
55%	1900 nM	810 nM	O=C(O)Cc1sc(C(c2ccccc2)c2ccccn2)nc1-c1ccc(Cl)cc1 (configuration not stated)
50%			O=C(O)Cc1sc(Cc2ccccc2)nc1-c1ccc(Cl)cc1
30%	570 nM	41 nM	O=C(O)Cc1sc(Cc2cccc3ccccc23)nc1-c1ccc(Cl)cc1
